Our source for the Activity and IC50 values is ChEMBL document CHEMBL1150976, “The selectivity of protein kinase inhibitors: a further update” (Biochem J, 2007).

For experiment [1], the target named is Ribosomal protein S6 kinase alpha-5 (Homo sapiens) (UniProt O75582). In words: Percentage MSK1 activity remaining in the presence of 3uM inhibitor.
Experiment [2] has as its target Mitogen-activated protein kinase 8 (Homo sapiens, UniProt P45983). Description: Percentage JNK1 activity remaining in the presence of 3uM inhibitor.
The target in experiment [3] is Proto-oncogene tyrosine-protein kinase Src (Gallus gallus) (UniProt P00523). Description: Percentage Src activity remaining in the presence of 3uM inhibitor. The following applies: filed as antagonist.
The target in experiment [4] is Mitogen-activated protein kinase 14 (Homo sapiens, UniProt Q16539). In words: Percentage p38alpha activity remaining in the presence of 3uM inhibitor.
Experiment [5] addresses Mitogen-activated protein kinase 10 (Homo sapiens) (UniProt P53779). In words: Percentage JNK3 activity remaining in the presence of 3uM inhibitor.
Experiment [6] has as its target MAP kinase-interacting serine/threonine-protein kinase 2 (Homo sapiens) (UniProt Q9HBH9). Description: Percentage MNK2 activity remaining in the presence of 3uM inhibitor.
Experiment [7] deals with Dual specificity tyrosine-phosphorylation-regulated kinase 1A (Homo sapiens) (UniProt Q13627). In words: Percentage DYRK1A activity remaining in the presence of 3uM inhibitor.
Experiment [8] has as its target Serine/threonine-protein kinase pim-1 (Homo sapiens, UniProt P11309). In words: Percentage PIM1 activity remaining in the presence of 3uM inhibitor.
Experiment [9] concerns the target Mitogen-activated protein kinase 1 (Homo sapiens) (UniProt P28482). Description: Percentage ERK2 activity remaining in the presence of 3uM inhibitor.
In experiment [10] the target is cAMP-dependent protein kinase catalytic subunit alpha (Homo sapiens, UniProt P17612). Description: Percentage PKA activity remaining in the presence of 3uM inhibitor.
The target in experiment [11] is Ephrin type-A receptor 2 (Homo sapiens, UniProt P29317). Description: Inhibition of Eph-A2 in the presence of 50uM ATP.
Experiment [12] deals with Ribosomal protein S6 kinase alpha-1 (Homo sapiens) (UniProt Q15418). In words: Percentage RSK1 activity remaining in the presence of 3uM inhibitor.
The target in experiment [13] is Calcium/calmodulin-dependent protein kinase kinase 1 (Homo sapiens) (UniProt Q8N5S9). Description: Percentage CaMKKalpha activity remaining in the presence of 3uM inhibitor.
In experiment [14] the target is MAP kinase-activated protein kinase 2 (Homo sapiens) (UniProt P49137). Description: Percentage MAPKAPK2 activity remaining in the presence of 2uM inhibitor.
The target of experiment [15] is Serine/threonine-protein kinase Nek6 (Homo sapiens) (UniProt Q9HC98). Description: Percentage NEK6 activity remaining in the presence of 2uM inhibitor.
In experiment [16] the target is Serine/threonine-protein kinase PLK1 (Homo sapiens, UniProt P53350). Description: Percentage PLK1 activity remaining in the presence of 2uM inhibitor.
The target in experiment [17] is T1, Mitogen-activated protein kinase 12 (Homo sapiens) (UniProt P53778).
T1 sequence (whole entry): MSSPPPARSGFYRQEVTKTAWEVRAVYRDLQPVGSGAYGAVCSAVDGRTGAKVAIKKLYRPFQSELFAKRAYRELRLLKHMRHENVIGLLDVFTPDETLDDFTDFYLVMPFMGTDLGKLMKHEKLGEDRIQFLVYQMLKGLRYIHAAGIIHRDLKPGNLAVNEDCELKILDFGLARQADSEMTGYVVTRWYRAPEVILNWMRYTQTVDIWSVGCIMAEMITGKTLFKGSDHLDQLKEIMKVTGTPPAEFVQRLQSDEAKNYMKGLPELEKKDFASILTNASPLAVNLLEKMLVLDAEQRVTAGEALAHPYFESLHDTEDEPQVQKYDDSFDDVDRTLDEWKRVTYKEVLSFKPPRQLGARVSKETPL
Description: Percentage p38-gamma activity remaining in the presence of 2uM inhibitor.

The target of experiment [18] is T2, Dual specificity tyrosine-phosphorylation-regulated kinase 3 (Homo sapiens) (UniProt O43781).
T2 sequence (whole entry): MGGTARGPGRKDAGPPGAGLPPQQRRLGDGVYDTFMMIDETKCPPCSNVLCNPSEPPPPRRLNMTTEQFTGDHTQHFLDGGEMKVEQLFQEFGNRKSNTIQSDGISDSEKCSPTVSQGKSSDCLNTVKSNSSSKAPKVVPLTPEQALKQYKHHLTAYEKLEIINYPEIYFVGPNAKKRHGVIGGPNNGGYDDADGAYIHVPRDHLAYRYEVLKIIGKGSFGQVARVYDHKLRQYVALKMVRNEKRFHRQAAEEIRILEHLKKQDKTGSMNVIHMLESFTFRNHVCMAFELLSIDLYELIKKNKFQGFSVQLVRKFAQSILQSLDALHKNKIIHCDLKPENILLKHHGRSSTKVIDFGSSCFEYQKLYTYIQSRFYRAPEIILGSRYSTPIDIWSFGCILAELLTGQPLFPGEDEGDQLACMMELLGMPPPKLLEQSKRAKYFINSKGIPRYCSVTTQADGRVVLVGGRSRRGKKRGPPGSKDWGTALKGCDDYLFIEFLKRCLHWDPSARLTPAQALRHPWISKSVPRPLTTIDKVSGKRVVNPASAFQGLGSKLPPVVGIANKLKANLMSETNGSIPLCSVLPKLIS
Description: Percentage DYRK3 activity remaining in the presence of 2uM inhibitor.

Experiment [19] deals with Calcium/calmodulin-dependent protein kinase type 1 (Homo sapiens) (UniProt Q14012). Description: Percentage CaMK1 activity remaining in the presence of 2uM inhibitor.
Experiment [20] has as its target Maternal embryonic leucine zipper kinase (Homo sapiens) (UniProt Q14680). Description: Percentage MELK activity remaining in the presence of 2uM inhibitor.
Experiment [21] concerns the target Mitogen-activated protein kinase 3 (Homo sapiens) (UniProt P27361). Description: Percentage ERK1 activity remaining in the presence of 2uM inhibitor.
For experiment [22], the target named is Serine/threonine-protein kinase PAK 5 (Homo sapiens) (UniProt Q9P286). In words: Percentage PAK5 activity remaining in the presence of 2uM inhibitor.
Experiment [23] addresses MAP kinase-activated protein kinase 3 (Homo sapiens) (UniProt Q16644). Description: Percentage MAPKAPK3 activity remaining in the presence of 2uM inhibitor.
Experiment [24] has as its target Homeodomain-interacting protein kinase 2 (Homo sapiens) (UniProt Q9H2X6). Description: Percentage HIPK2 activity remaining in the presence of 2uM inhibitor. The following applies: filed as antagonist.
Experiment [25] deals with Casein kinase I isoform delta (Homo sapiens, UniProt P48730). In words: Percentage CK1delta activity remaining in the presence of 2uM inhibitor.
Experiment [26] concerns the target RAC-beta serine/threonine-protein kinase (Homo sapiens) (UniProt P31751). In words: Percentage PKBbeta activity remaining in the presence of 0.01uM inhibitor.

Chain of Ribosomal protein S6 kinase alpha-1 (Homo sapiens) (Q15418 whole entry): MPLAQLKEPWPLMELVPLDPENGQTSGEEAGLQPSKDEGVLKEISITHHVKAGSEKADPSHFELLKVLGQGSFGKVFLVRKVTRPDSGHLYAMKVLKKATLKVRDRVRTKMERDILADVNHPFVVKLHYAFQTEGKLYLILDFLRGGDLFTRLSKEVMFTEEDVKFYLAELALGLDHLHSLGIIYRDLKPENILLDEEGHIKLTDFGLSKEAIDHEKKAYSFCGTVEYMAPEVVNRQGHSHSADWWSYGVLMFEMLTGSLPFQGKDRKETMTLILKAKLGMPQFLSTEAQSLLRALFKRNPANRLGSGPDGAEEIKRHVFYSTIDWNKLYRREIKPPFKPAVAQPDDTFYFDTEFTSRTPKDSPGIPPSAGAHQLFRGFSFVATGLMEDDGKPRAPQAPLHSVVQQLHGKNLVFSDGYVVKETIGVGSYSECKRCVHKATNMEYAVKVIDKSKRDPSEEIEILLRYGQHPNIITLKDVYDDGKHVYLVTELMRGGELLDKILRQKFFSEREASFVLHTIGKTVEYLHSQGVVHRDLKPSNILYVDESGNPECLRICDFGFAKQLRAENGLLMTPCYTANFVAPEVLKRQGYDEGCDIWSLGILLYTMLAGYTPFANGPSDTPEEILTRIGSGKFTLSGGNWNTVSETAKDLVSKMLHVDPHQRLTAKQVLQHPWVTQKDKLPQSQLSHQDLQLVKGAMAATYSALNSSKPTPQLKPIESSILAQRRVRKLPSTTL
Chain of Calcium/calmodulin-dependent protein kinase kinase 1 (Homo sapiens) (Q8N5S9 whole entry, looked up): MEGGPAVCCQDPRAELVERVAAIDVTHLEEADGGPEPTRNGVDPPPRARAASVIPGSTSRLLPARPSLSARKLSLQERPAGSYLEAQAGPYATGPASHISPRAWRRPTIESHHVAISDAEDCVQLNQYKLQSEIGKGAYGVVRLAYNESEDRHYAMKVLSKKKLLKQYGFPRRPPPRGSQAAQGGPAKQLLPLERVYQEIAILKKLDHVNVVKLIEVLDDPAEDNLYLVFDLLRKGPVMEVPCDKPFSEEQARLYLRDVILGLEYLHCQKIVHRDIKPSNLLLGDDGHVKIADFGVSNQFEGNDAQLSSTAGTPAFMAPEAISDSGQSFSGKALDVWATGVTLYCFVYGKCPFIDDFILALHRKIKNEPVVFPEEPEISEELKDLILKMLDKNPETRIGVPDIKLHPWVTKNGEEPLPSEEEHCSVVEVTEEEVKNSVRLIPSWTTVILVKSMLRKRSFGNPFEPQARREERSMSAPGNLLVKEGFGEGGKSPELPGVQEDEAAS
Chain of Mitogen-activated protein kinase 14 (Q16539 whole entry): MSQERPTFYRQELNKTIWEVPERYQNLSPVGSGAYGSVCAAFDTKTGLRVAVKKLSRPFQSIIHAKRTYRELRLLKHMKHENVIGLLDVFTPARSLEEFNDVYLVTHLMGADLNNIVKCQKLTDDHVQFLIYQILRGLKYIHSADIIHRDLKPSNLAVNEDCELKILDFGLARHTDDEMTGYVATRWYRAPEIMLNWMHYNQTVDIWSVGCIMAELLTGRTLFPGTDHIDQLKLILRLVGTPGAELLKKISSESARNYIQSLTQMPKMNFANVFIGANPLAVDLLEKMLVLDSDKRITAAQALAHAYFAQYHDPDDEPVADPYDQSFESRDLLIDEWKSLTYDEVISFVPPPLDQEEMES
Chain of Ephrin type-A receptor 2 (P29317 whole entry): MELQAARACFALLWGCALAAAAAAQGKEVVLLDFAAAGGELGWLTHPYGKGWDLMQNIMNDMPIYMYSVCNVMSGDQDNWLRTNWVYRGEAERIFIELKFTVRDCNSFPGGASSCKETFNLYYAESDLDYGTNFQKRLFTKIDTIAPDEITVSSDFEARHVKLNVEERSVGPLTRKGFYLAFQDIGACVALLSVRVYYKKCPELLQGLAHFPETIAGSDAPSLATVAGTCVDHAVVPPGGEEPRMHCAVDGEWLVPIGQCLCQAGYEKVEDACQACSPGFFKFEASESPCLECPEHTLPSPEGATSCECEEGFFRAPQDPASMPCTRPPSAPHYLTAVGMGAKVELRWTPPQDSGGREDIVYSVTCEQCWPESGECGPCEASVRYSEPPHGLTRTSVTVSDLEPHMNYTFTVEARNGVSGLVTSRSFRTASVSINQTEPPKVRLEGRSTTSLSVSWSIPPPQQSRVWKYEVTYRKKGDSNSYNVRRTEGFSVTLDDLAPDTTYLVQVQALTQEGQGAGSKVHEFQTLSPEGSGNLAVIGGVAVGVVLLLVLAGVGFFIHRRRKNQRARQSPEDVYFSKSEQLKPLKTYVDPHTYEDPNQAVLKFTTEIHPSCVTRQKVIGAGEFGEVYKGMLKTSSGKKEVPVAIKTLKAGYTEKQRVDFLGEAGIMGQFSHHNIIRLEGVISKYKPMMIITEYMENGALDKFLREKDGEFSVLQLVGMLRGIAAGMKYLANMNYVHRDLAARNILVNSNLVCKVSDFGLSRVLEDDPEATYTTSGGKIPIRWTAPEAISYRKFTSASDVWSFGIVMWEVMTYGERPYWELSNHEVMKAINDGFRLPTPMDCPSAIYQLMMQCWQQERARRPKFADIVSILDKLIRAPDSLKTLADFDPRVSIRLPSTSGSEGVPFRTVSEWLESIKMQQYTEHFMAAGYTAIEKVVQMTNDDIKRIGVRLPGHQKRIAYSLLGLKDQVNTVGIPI
Chain of Homeodomain-interacting protein kinase 2 (Homo sapiens) (Q9H2X6 whole entry, looked up, canonical isoform): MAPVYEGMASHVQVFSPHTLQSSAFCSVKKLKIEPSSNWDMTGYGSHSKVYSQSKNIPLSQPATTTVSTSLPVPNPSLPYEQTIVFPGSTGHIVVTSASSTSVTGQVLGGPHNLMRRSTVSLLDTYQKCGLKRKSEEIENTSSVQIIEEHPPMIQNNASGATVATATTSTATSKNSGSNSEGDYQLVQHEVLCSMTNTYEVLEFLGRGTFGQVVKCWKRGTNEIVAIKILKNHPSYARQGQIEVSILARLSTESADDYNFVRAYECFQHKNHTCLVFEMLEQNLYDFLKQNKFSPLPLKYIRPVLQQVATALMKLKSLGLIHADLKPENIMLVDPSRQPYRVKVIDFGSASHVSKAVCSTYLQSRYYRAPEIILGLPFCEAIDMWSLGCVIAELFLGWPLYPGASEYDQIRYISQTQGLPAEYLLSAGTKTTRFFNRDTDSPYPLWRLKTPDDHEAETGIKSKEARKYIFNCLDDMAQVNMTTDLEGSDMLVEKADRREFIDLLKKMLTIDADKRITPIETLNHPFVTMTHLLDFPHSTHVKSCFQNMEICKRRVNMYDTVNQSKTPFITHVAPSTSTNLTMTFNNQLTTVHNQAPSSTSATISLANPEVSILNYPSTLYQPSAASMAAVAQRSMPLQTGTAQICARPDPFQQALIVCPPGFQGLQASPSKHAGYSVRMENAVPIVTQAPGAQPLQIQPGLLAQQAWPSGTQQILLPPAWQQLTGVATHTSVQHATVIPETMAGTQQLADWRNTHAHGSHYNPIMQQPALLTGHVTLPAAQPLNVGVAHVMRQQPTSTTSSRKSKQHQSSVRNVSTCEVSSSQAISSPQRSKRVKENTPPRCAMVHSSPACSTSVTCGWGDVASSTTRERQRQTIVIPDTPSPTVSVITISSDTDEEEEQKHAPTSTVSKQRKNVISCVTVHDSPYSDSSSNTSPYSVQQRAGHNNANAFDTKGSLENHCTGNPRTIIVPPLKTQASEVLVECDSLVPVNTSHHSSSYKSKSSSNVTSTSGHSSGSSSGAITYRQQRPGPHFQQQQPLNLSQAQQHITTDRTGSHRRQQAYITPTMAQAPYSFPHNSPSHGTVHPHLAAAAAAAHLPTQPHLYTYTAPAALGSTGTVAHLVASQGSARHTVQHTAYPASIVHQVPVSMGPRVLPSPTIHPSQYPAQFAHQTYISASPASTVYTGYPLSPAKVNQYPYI
Chain of Mitogen-activated protein kinase 8 (P45983 whole entry): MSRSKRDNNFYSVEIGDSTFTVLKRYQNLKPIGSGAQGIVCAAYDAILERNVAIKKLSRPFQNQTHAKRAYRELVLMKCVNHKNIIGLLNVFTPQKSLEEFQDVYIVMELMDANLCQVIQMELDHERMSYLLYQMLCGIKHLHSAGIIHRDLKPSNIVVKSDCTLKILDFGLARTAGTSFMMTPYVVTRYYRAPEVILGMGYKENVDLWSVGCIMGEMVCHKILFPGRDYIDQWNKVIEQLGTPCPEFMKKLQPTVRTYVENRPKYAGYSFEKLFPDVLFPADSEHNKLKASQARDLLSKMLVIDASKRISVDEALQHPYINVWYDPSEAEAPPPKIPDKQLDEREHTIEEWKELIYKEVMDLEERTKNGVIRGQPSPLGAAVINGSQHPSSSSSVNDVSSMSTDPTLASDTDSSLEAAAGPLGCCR
Chain of Calcium/calmodulin-dependent protein kinase type 1 (Homo sapiens) (Q14012 whole entry, looked up): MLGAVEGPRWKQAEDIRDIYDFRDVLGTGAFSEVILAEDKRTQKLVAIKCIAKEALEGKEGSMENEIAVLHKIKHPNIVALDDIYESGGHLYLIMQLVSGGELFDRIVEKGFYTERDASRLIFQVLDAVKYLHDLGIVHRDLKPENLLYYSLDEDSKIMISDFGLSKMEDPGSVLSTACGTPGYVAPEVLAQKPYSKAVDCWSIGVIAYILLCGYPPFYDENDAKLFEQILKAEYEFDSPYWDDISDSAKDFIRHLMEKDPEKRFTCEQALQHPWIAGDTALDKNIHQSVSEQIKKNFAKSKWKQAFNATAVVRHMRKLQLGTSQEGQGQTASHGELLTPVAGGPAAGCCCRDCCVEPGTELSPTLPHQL
Chain of Mitogen-activated protein kinase 1 (Homo sapiens) (P28482 whole entry): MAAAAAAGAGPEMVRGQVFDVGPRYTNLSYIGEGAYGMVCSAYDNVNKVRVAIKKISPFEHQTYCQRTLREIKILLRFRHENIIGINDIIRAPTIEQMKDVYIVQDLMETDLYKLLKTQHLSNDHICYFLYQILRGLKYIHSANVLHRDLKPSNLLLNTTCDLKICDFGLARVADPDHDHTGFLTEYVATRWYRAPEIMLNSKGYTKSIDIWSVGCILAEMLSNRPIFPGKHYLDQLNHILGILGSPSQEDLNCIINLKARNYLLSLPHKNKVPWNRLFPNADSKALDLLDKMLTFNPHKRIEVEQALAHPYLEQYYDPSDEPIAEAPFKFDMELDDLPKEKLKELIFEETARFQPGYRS

As a reminder, the IC50 is the concentration at which inhibition is half-maximal. With `Cc1ccc(-c2c(C(=O)CF)n(CCCO)c3ncnc(N)c23)cc1`, the Activity in experiment [1] is 75%; in experiment [2], 81%; in experiment [3], 10%; in [4], 72%; in experiment [5], 89%; in experiment [6], 65%. Moreover, the Activity in experiment [7] is 86%; in [8], 61%; in experiment [9], 79%; in experiment [10] it was 85%; in experiment [12], 92%; in [13] it was 70%. Moreover, the IC50 in [11] is 760 nM (antagonist).

As to `Cn1cc(C2=C(c3ccc(Cl)cc3Cl)C(=O)NC2=O)c2ccccc21`, the Activity was determined as 82% in [14]; 74% in [15]; 62% in experiment [16]; 84% in [17]; 79% in experiment [18]; 96% in [19]. The Activity in experiment [20] is 78%; in [21], 99%; in experiment [22], 85%; in [23] it was 103%; in experiment [24], 15%; in experiment [25], 78%.

In the case of `CN[C@@H]1C[C@H]2O[C@@](C)([C@@H]1OC)n1c3ccccc3c3c4c(c5c6ccccc6n2c5c31)C(=O)N[C@H]4O` (stereo in doubt), in experiment [26], the Activity amounted to 77%.
